Experimental data from patent US20200317642A1, “AMINE-SUBSTITUTED HETEROCYCLIC COMPOUNDS AS EHMT2 INHIBITORS AND DERIVATIVES THEREOF” (Epizyme, Inc., priority 2017, published 2020).
Read-outs that look alike come from different tables or passages of the source.

How the values were obtained:
human EHMT2 913-1193 = biological target: T1, human EHMT2 913-1193 (Homo sapiens, UniProt Q96KQ7); assay: EHMT2 enzyme assay on histone peptide substrate; assay type: biochemical; details: histone H3 1-15 peptide, balanced conditions
T1 construct: recombinant purified human EHMT2 913-1193, Viva; purchased Viva
T1 sequence (Q96KQ7 913-1193): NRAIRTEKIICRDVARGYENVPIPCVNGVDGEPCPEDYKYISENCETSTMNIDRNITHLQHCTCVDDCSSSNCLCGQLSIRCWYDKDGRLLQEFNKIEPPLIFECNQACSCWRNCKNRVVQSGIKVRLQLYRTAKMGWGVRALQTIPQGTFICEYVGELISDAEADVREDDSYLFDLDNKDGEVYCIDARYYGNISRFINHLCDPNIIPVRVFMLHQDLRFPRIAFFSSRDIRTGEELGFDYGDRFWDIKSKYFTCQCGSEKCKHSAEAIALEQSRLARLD
From the text: Recombinant purified human EHMT2 913-1193 ([…]) synthesized by Viva was used for all experiments. Biotinylated histone peptides were synthesized by Biopeptide and HPLC-purified to >95% purity. Streptavidin Flashplates and seals were purchased from PerkinElmer and 384 Well V-bottom Polypropylene Plates were from Greiner. ^3H-labeled S-adenosylmethionine (^3H-SAM) was obtained from American Radiolabeled Chemicals with a specific activity of 80 Ci/mmol. Unlabeled SAM and S-adenosylhomocysteine (SAH) were obtained from American Radiolabeled Chemicals and Sigma-Aldrich respectively. Flashplates were washed in a Biotek ELx-405 with 0.1% Tween. 384-well Flashplates and 96-well filter binding plates were read on a TopCount microplate reader (PerkinElmer). Compound serial dilutions were performed on a Freedom EVO (Tecan) and spotted into assay plates using a Thermo Scientific Matrix PlateMate (Thermo Scientific). Reagent cocktails were added by Multidrop Combi (Thermo Scientific).
10-point curves of test compounds were made on a Freedom EVO (Tecan) using serial 3-fold dilutions in DMSO, beginning at 2.5 mM (final top concentration of compound was […] and the DMSO was 2%). A 1 μL aliquot of the inhibitor dilution series was spotted in a polypropylene 384-well V-bottom plate (Greiner) using a Thermo Scientific Matrix PlateMate (Thermo Scientific). The 100% inhibition control consisted of 1 mM final concentration of the product inhibitor S-adenosylhomocysteine (SAH, Sigma-Aldrich). Compounds were incubated for 30 minutes with 40 μL per well of 0.031 nM EHMT2 (recombinant purified human EHMT2 913-1193, Viva) in 1× assay buffer (20 mM Bicine [pH 7.5], 0.002% Tween 20, 0.005% Bovine Skin Gelatin and 1 mM TCEP). 10 μL per well of substrate mix comprising assay buffer, ^3H-SAM (^3H-labeled S-adenosylmethionine, American Radiolabeled Chemicals, specific activity of 80 Ci/mmol), unlabeled SAM (American Radiolabeled Chemicals), and peptide representing histone H3 residues 1-15 containing C-terminal biotin (appended to a C-terminal amide-capped lysine, synthesized by Biopeptide and HPLC-purified to greater than 95% purity) were added to initiate the reaction (both substrates were present in the final reaction mixture at their respective Km values, an assay format referred to as “balanced conditions”). Reactions were incubated for 60 minutes at room temperature and quenched with 10 μL per well of 400 μM unlabeled SAM, then transferred to a 384-well streptavidin Flashplate (PerkinElmer) and washed in a Biotek ELx-405 well washer with 0.1% Tween after 60 minutes. 384-well Flashplates were read on a TopCount microplate reader (PerkinElmer).

[1] = tested on: H3K9me2 in MDA-MB-231 cells; assay: MDA-MB-231 H3K9me2 in-cell western assay (EHMT2 ICW); assay type: cell-based; details: Homo sapiens
From the text: MDA-MB-231 cell line was purchased from ATCC (Manassas, Va., USA). RPMI/Glutamax medium, Penicillin-Streptomycin, Heat Inactivated Fetal Bovine Serum, and D-PBS were purchased from Life Technologies (Grand Island, N.Y., USA). Odyssey blocking buffer, 800 CW goat anti-mouse IgG (H+L) antibody, and Licor Odyssey Infrared Scanner were purchased from Licor Biosciences, Lincoln, Nebr., USA. H3K9me2 mouse monoclonal antibody (Cat #1220) was purchased from Abcam (Cambridge, Mass., USA). 16% Paraformaldehyde was purchased from Electron Microscopy Sciences, Hatfield, Pa., USA). MDA-MB-231 cells were maintained in complete growth medium (RPMI supplemented with 10% v/v heat inactivated fetal bovine serum) and cultured at 37° C. under 5% C02. UNC0638 was purchased from Sigma-Aldrich (St. Louis, Mo., USA).
General Procedure for MDA-MB-231 HEK9me2 in-Cell Western Assay.
Compound (100 nL) was added directly to 384-well cell plate. MDA-MB-231 cells (ATCC) were seeded in assay medium (RPMI/Glutamax supplemented with 10% v/v heat inactivated fetal bovine serum and 1% Penicillin/Streptomycin, Life Technologies) at a concentration of 3,000 cells per well to a Poly-D-Lysine coated 384-well cell culture plate with 50 μL per well. Plates were incubated at 37° C., 5% CO2 for 48 hours (BD Biosciences 356697). […] After the incubation, 50 μL per well of 8% paraformaldehyde (Electron Microscopy Sciences) in PBS was added to the plates and incubated at room temperature for 20 minutes. Plates were transferred to a Biotek 406 plate washer and washed 2 times with 100 μL per well of wash buffer (1×PBS containing 0.3% Triton X-100 (v/v)). Next, 60 μL per well of Odyssey blocking buffer (Licor Biosciences) was added to each plate and incubated for 1 hour at room temperature. Blocking buffer was removed and 20 μL of monoclonal primary antibody α-H3K9me2 (Abcam) diluted 1:800 in Odyssey buffer with 0.1% Tween 20 (v/v) were added and plates were incubated overnight (16 hours) at 4° C. Plates were washed 5 times with 100 μL per well of wash buffer. Next 20 μL per well of secondary antibody was added (1:500 800 CW donkey anti-mouse IgG (H+L) antibody (Licor Biosciences), 1:1000 DRAQ5 (Cell Signaling Technology) in Odyssey buffer with 0.1% Tween 20 (v/v)) and incubated for 1 hour at room temperature. The plates were washed 5 times with 100 μL per well wash buffer then 2 times with 100 μL per well of water. Plates were allowed to dry at room temperature then imaged on a Licor Odyssey Infrared Scanner (Licor Biosciences) which measured integrated intensity at 700 nm and 800 nm wavelengths. Both 700 and 800 channels were scanned.
First, the ratio for each well was determined by:
Each plate included fourteen control wells of DMSO only treatment (Minimum Inhibition) as well as fourteen control wells (background wells) for maximum inhibition treated with control compound UNC0638 (Background wells).
The average of the ratio values for each well was calculated and used to determine the percent inhibition for each test well in the plate. Control compound was serially diluted three-fold in DMSO for a total of 10 test concentrations beginning at 1 μM. Percent inhibition was calculated as: […]
IC50 curves were generated using triplicate wells per concentration of compound. The IC50 is the concentration of compound at which measured methylation is inhibited by 50% as interpolated from the dose response curves. IC50 values were calculated using a non-linear regression (variable slope-four parameter fit model) with by the following formula:
where Top is fixed at 100% and Bottom is fixed to 0%, [I]=concentration of inhibitor, IC50=half maximal inhibitory concentration and n=Hill Slope.

[2] = Table 3A, read-out: EHMT2 (IC50 μM)
[3] = Table 3A, read-out: ICW (IC50 μM)
[4] = Table 3, read-out: EHMT2 PEP (IC50 μM)
[5] = Table 3, read-out: EHMT2 ICW (IC50 μM)

SMILES	IC50 (human EHMT2 913-1193; [2])	IC50 [1, 3]	IC50 (human EHMT2 913-1193; [4])	IC50 [1, 5]
CNc1cc(C)nc(Nc2ccc(OC)c(-n3cc([C@@H]4CCCN4)nn3)c2F)n1 [Compound A4S]	0.1 to 1 µM	0.1 to 1 µM	–	–
CNc1cc(C)nc(Nc2ccc(OC)c(CNCCN3CC[C@@H](C)C3)c2)n1 [Compound 38]	–	–	1 to 10 µM	> 10 µM
CNc1cc(C)nc(Nc2ccc(OC)c(CN[C@@H](C)CN3CCCC3)c2)n1 [Compound 47]	–	–	0.1 to 1 µM	1 to 10 µM
CNc1cc(C)nc(Nc2ccc(Cl)c(C(=O)Nc3cocn3)c2)n1 [Compound 14, 2-chloro-5-[[4-methyl-6-(methylamino)pyrimidin-2-yl]amino]-N-(1,3-oxazol-4-yl)benzamide]	–	–	> 10 µM	> 10 µM
CNc1cc(C)nc(Nc2ccc(OC)c(CNCCN3CCC[C@H]3C)c2)n1 [Compound 31]	–	–	0.1 to 1 µM	1 to 10 µM
CNc1cc(C)nc(Nc2ccc(OC)c(CNCCN3CCC[C@@H]3C)c2)n1 [Compound 32]	–	–	> 10 µM	1 to 10 µM
CNc1cc(C)nc(Nc2ccc(Cl)c(C(=O)Nc3ccccc3)c2)n1 [Compound 10]	–	–	> 10 µM	> 10 µM
CNc1cc(C)nc(Nc2ccc(C)c(C(=O)Nc3ncn(C)n3)c2)n1 [Compound 33]	–	–	> 10 µM	> 10 µM
CNc1cc(C)nc(Nc2ccc(OC)c(CNCCN3CC[C@H](C)C3)c2)n1 [Compound 39]	–	–	0.1 to 1 µM	1 to 10 µM
CNc1cc(C)nc(Nc2ccc(Cl)c(C(=O)NCC3CCC3)c2)n1 [Compound 3]	–	–	1 to 10 µM	> 10 µM
CNc1cc(C)nc(Nc2ccc(Cl)c(C(=O)NC3CCOCC3)c2)n1 [Compound 8]	–	–	> 10 µM	> 10 µM
CNc1cc(C)nc(Nc2ccc(Cl)c(C(=O)NCCN3CCCC3)c2)n1 [Compound 7]	–	–	0.1 to 1 µM	1 to 10 µM
CNc1cc(C)nc(Nc2ccc(OC)c(CNC[C@H](C)N3CCCC3)c2)n1 [Compound 43]	–	–	> 10 µM	> 10 µM
CNc1cc(C)nc(Nc2ccc(C)c(C(=O)Nc3cn(C4CC4)cn3)c2)n1 [Compound 36]	–	–	> 10 µM	> 10 µM
CNc1cc(C)nc(Nc2ccc(OC)c(CN[C@H](C)CN3CCCC3)c2)n1 [Compound 48]	–	–	1 to 10 µM	1 to 10 µM
CNc1cc(C)nc(Nc2ccc(OC)c(-n3cc4c(n3)CCNC4)c2F)n1 [Compound A19, N2-(2-fluoro-4-methoxy-3-(4,5,6,7-tetrahydro-2H-pyrazolo[4,3-c]pyridin-2-yl)phenyl)-N4,6-dimethylpyrimidine-2,4-diamine]	0.1 to 1 µM	0.1 to 1 µM	–	–
CNc1cc(C)nc(Nc2ccc(Br)c(CNCCN3CCCC3)c2)n1 [Compound 1, 2-N-[4-bromo-3-([[2-(pyrrolidin-1-yl)ethyl]amino]methyl)phenyl]-4-N,6-dimethylpyrimidine-2,4-diamine]	–	–	0.1 to 1 µM	1 to 10 µM
CNc1cc(C)nc(Nc2ccc(Cl)c(C(=O)Nc3cn(C)cn3)c2)n1 [Compound 15]	–	–	> 10 µM	> 10 µM

Second part, the compound after the results:

IC50 (human EHMT2 913-1193; [2])	IC50 [1, 3]	IC50 (human EHMT2 913-1193; [4])	IC50 [1, 5]	SMILES
0.01 to 0.1 µM	0.01 to 0.1 µM	–	–	CNc1cc(C)nc(Nc2ccc(OC)c(-n3cc(C4CCCN4)nn3)c2F)n1 (centres unmarked) [Compound A4]
< 0.01 µM	0.01 to 0.1 µM	–	–	CNc1cc(C)nc(Nc2ccc(Cl)c(-n3cc(CN)cn3)c2Cl)n1 [Compound A6]
0.01 to 0.1 µM	0.1 to 1 µM	–	–	CNCc1cn(-c2c(OC)cc3c(c2F)N=C(NC)C32CCC2)nn1 [Compound A21]
0.01 to 0.1 µM	0.1 to 1 µM	–	–	CNC1=Nc2cc(-n3cc(C4CCCN4)nn3)c(Cl)cc2C12CCC2 (centres unmarked) [Compound A2]
0.1 to 1 µM	> 1 µM	–	–	CNc1cc(C)nc(Nc2ccc(OC)c(-n3cc(CNC(C)C)cn3)c2F)n1 [Compound A5]
> 1 µM	> 1 µM	–	–	CNC1=Nc2cc(-c3cc4n(n3)CCN(C)C4)c(Cl)cc2C12CCC2 [Compound A12, 5′-chloro-N-methyl-6′-(5-methyl-4,5,6,7-tetrahydropyrazolo[1,5-a]145yrazine-2-yl)spiro[cyclobutane-1,3′-indol]-2′-amine]
0.1 to 1 µM	> 1 µM	–	–	CNC1=Nc2cc(-c3cc4n(n3)CCNC4)c(Cl)cc2C12CCC2 [Compound A10, 5′-chloro-N-methyl-6′-(4,5,6,7-tetrahydropyrazolo[1,5-a]pyrazin-2-yl)spiro[cyclobutane-1,3′-indol]-2′-amine]
0.1 to 1 µM	0.1 to 1 µM	–	–	CNc1cc(C)nc(Nc2ccc(OC)c(-n3ncc4c3CCNC4)c2F)n1 [Compound A9, N2-(2-fluoro-4-methoxy-3-(4,5,6,7-tetrahydro-1H-pyrazolo[4,3-c]142yridine-1-yl)phenyl)-N4,6-dimethylpyrimidine-2,4-diamine]
0.01 to 0.1 µM	0.1 to 1 µM	–	–	CNCc1cn(-c2cc3c(cc2Cl)C2(CCC2)C(NC)=N3)nn1 [Compound A11, 5′-chloro-N-methyl-6′-(4-((methylamino)methyl)-1H-1,2,3-triazol-1-yl)spiro[cyclobutane-1,3′-indol]-2′-amine]
0.01 to 0.1 µM	0.1 to 1 µM	–	–	CNCc1cn(-c2c(OC)cc3c(c2F)N=C(N)C32CCC2)nn1 [Compound A22]
